{"source": "patent US20240114940A1", "about": "“SACCHARIDE COMPOSITIONS HAVING SUCROSE-LIKE CHARACTERISTICS AND RELATED METHODS” (priority 2021, published 2024)", "type_in_all_cases": "physicochemical", "key": {"[1]": {"test": "Breakdown products by GCMS after Maillard reaction in the presence of Tryptophan", "conditions": "with Tryptophan, pH 7, 160° C., 10 min", "protocol": "(§1) Controls were prepared addition of 1 mL of pH 7 buffer to the amino acids. The samples were rapidly heated to 160° C. and held at this temperature for 10 min. Samples were rapidly cooled afterwards, and absorbance at 500 nm was measured for each reaction mixture. Volatiles were analysed using gas chromatography mass spectrometry (GCMS) analysis. An Agilent Technologies 5975B Inert XL MSD gas chromatography, single quadruple mass spectrometer was used for analysis of volatiles. Samples were added to separate GCMS headspace vials and weighed. 0.03 g of 0.01% 3-heptanone in water was added and the vial was sealed for GCMS solid phase micro extraction (SPME) analysis. Samples were analysed in a randomized order. Samples were incubated and agitated at 250 RPM, at 60° C. for 15 min prior to SPME analysis of volatiles. The SPME fibre (50/30 DVB/CAR/PDMS, 23 Ga) extracted for 10 min, then thermally desorbed at 250° C. for 5 min. A 30 m×0.25 mm×0.25 μm HP-5MS column was used (Phenomenex, UK). Oven temperature settings: 31° C.-5 min, 5° C./min to 150° C., 30° C./min to 240° C. Inlet settings: 250° C., pressure 10.4 psi, flow 11.2 mL/min, split ratio 7:1. MS operated in full scan mode from 40 to 400 m/z with a scan time of 0.2s. The peak area of the aroma compounds was compared to the peak of the internal standard 3-heptanone and corrected for the weight of the sample.\n(§2) The concentration of the different classes of Maillard reaction breakdown products is presented in Tables 9B-E. The same data as Tables 9B-E is also presented in FIG. 27. Concentrations are in parts per billion of the difference non-enzymatic breakdown products for the different compositions at 160° C. analysed by GCMS."}, "[2]": {"test": "Breakdown products by GCMS after Maillard reaction in the presence of Leucine", "conditions": "160° C.", "protocol": "as §1, §2"}, "[3]": {"test": "Breakdown products by GCMS without an amino acid present", "conditions": "pH 7, 160° C., 10 min", "protocol": "as §1, §2"}, "[4]": {"test": "Non-enzymatic breakdown products in confectionery mixtures (milk, butter, saccharides)", "conditions": "final confectionery mixture"}, "[5]": {"test": "Heating in a closed system (sealed microwave reactor tubes, 2 min), saccharides by ion-exchange chromatography", "conditions": "acidic conditions (pH 3 buffer), 177° C."}, "[6]": {"conditions": "Carbonyls/ketones, Maillard reaction in the presence of Leucine, GCMS"}, "[7]": {"conditions": "Furans, Maillard reaction in the presence of Leucine, GCMS"}, "[8]": {"conditions": "Pyrazines, Maillard reaction in the presence of Leucine, GCMS"}}}
{"smiles": "OC[C@H]1O[C@@](CO)(O[C@H]2O[C@H](CO)[C@@H](O)[C@H](O)[C@H]2O)[C@@H](O)[C@@H]1O", "note": "[Sucrose]", "values": [{"measurement": "Concentration of 2-Butanone", "setting": "[1]", "value": 3.16, "unit": "ppb"}, {"measurement": "Concentration of 2-Propanone, 1-hydroxy-", "setting": "[1]", "value": 20.48, "unit": "ppb"}, {"measurement": "Concentration of Diacetyl (2,3-Butanedione)", "setting": "[1]", "value": 6.99, "unit": "ppb"}, {"measurement": "Concentration of Furan, 2-methyl-", "setting": "[1]", "value": 0.25, "unit": "ppb"}, {"measurement": "Concentration of Furan, 2-pentyl-", "setting": "[1]", "value": 0.03, "unit": "ppb"}, {"measurement": "Concentration of Furfural", "setting": "[1]", "value": 0.03, "unit": "ppb"}, {"measurement": "Concentration of Indole", "setting": "[1]", "value": 20.81, "unit": "ppb"}, {"measurement": "Concentration of Pyrazine, 2,5-diethyl-", "setting": "[1]", "value": 5.74, "unit": "ppb"}, {"measurement": "Concentration of Pyrazine, 2,5-dimethyl-", "setting": "[1]", "value": 778.85, "unit": "ppb"}, {"measurement": "Concentration of Pyrazine, 2-ethyl-5-methyl-", "setting": "[1]", "value": 201.9, "unit": "ppb"}, {"measurement": "Concentration of Pyrazine, ethyl-", "setting": "[1]", "value": 0.19, "unit": "ppb"}, {"measurement": "Concentration of Pyrazine, methyl-", "setting": "[1]", "value": 0.56, "unit": "ppb"}, {"measurement": "2-Butanone concentration", "setting": "[2]; [6]", "value": 9.73, "unit": "ppb"}, {"measurement": "2-Propanone, 1-hydroxy- concentration", "setting": "[2]; [6]", "value": 45.73, "unit": "ppb"}, {"measurement": "Diacetyl (2,3-Butanedione) concentration", "setting": "[2]; [6]", "value": 41.79, "unit": "ppb"}, {"measurement": "Furan, 2-methyl- concentration", "setting": "[2]; [7]", "value": 0.42, "unit": "ppb"}, {"measurement": "Furfural concentration", "setting": "[2]; [7]", "value": 0.16, "unit": "ppb"}, {"measurement": "Pyrazine, 2,5-diethyl- concentration", "setting": "[2]; [8]", "value": 24.28, "unit": "ppb"}, {"measurement": "Pyrazine, 2,5-dimethyl- concentration", "setting": "[2]; [8]", "value": 2111.75, "unit": "ppb"}, {"measurement": "Pyrazine, 2-ethyl-5-methyl- concentration", "setting": "[2]; [8]", "value": 554.43, "unit": "ppb"}, {"measurement": "Pyrazine, ethyl- concentration", "setting": "[2]; [8]", "value": 8.8, "unit": "ppb"}, {"measurement": "Pyrazine, methyl- concentration", "setting": "[2]; [8]", "value": 20.49, "unit": "ppb"}, {"measurement": "Isovaleraldehyde (Butanal, 3-methyl-) concentration", "setting": "[2]; Strecker aldehydes, Maillard reaction in the presence of Leucine, GCMS", "value": 3412.25, "unit": "ppb"}, {"measurement": "Isovaleraldehyde concentration", "setting": "[2]; with leucine", "value": 3400, "unit": "ppb"}, {"measurement": "Concentration of 2-Butanone", "setting": "[3]", "value": 178.52, "unit": "ppb"}, {"measurement": "Concentration of 2-Propanone, 1-hydroxy-", "setting": "[3]", "value": 96.48, "unit": "ppb"}, {"measurement": "Concentration of 5-methyl furfural", "setting": "[3]", "value": 0, "unit": "ppb"}, {"measurement": "Concentration of Diacetyl (2,3-Butanedione)", "setting": "[3]", "value": 245.45, "unit": "ppb"}, {"measurement": "Concentration of Furan, 2-methyl-", "setting": "[3]", "value": 0, "unit": "ppb"}, {"measurement": "Concentration of Furfural", "setting": "[3]", "value": 1.42, "unit": "ppb"}, {"measurement": "Concentration of 3-methyl-3-(2-oxopropylamino)butan-2-one", "setting": "[4]", "value": 0.00, "unit": "ppb"}, {"measurement": "Concentration of Acetic acid", "setting": "[4]", "value": 0.01, "unit": "ppb"}, {"measurement": "Concentration of Benzaldehyde", "setting": "[4]", "value": 0.13, "unit": "ppb"}, {"measurement": "Concentration of Furfural", "setting": "[4]", "value": 0.01, "unit": "ppb"}, {"measurement": "Concentration of Isovaleraldehyde", "setting": "[4]", "value": 0.17, "unit": "ppb"}, {"measurement": "sucrose degraded", "setting": "[5]", "value": "around 85%"}]}
